Assay results taken from PMC3272584 (Bioorganic & medicinal chemistry, 2011).

system: rat neonatal microglia; assay: Short-term microglia cell viability: LDH release; details: short-term cell viability (90 min)

SMILES	LDH50 (concentration that caused 50% release of the total LDH content of microglia cells) [µM]
[C-]#[N+][C@@]1(C)CC[C@H]2[C@H]3[C@@H](C(=C)CC[C@H]31)[C@H](CC(=C)C)C[C@@H]2C [Compound 1, 7-isocyano-11(20)-15(16)-amphilectadiene]	>10
[C-]#[N+][C@@]12CCC(=C)[C@H]3[C@H](CC(C)(C)NC(=O)CN4CCC4=O)C[C@H](C)[C@@H](CC[C@@H]1C)[C@@H]32 [Compound 5, monamphilectine A]	>10
[C-]#[N+]C(C)(C)C[C@@H]1C[C@H](C)[C@H]2CC[C@H](C)[C@@]3([N+]#[C-])CCC(=O)[C@@H]1[C@H]23 [Compound 6, 8,15-diisocyano-11-amphilectone]	>10
[C-]#[N+]C(C)(C)C[C@@H]1C[C@H](C)[C@H]2CC[C@H](C)[C@@]3([N+]#[C-])CCC(=C)[C@@H]1[C@H]23 [Compound 2, (–)-8,15-diisocyano-11(20)-amphilectene]	>10
[C-]#[N+][C@@]12CCC(=C)[C@H]3[C@H](CC(C)(C)NC=O)C[C@H](C)[C@@H](CC[C@@H]1C)[C@@H]32 [Compound 4, 8-isocyano-11(20)-ene-15-amphilectaformamide]	>10
